{"source": "patent US11478466B2", "about": "“Small molecule promoting osteoblast differentiation” (Cornell University, priority 2019, dated 2022)", "molecules": {"B1": {"name": "RANKL: Receptor activator of nuclear factor kB ligand, positive control to stimulate osteoclast differentiation (protein, UniProt O14788 140-317, looked up)", "Tumor necrosis factor ligand …": "IRAEKAMVDGSWLDLAKRSKLEAQPFAHLTINATDIPSGSHKVSLSSWYHDRGWAKISNMTFSNGKLIVNQDGFYYLYANICFRHHETSGDLATEYLQLMVYVTKTSIKIPSSHTLMKGGSTKYWSGNSEFHFYSINVGGFFKLRSGEEISIEVSNPSLLDPDQDATYFGAFKVRDID"}}, "format_in_all_cases": "cell-based, mouse", "key": {"p38 MAPK": {"system": "p38 MAPK", "experiment": "Western blotting of p38 MAPK phosphorylation in C2C12 cells", "conditions": "C2C12, western blotting", "procedure": "(§1) Whole cell extracts were collected from C2C12 or BRITER cells in complete lysis buffer (20 mM Tris, 150 mM NaCl, 50 mM NaF, 1% NP40 substitute, HALT protease inhibitor cocktail (ThermoScientific). Proteins were resolved by electrophoresis on pre-cast 10% NuPage Bis-Tris gels (Invitrogen) and transferred to PVDF membranes (Bio-Rad). Membranes were blocked in 5% BSA-TBS-0.5% Tween-20 for 15 minutes, then incubated at 4° overnight with primary antibodies. Antibodies used were: rabbit anti-phospho-p38 MAPK (cat. no. 9211), anti-p38 MAPK XP (8690), anti-phospho-SMAD1/5 (9516), anti-SMAD1 XP (6944), anti-phospho-SMAD2/3 (8828), anti-SMAD2/3 XP (8685), anti-phospho-JNK (4668), anti-SAPK/JNK (9252), anti-phospho-Akt XP (4060), pan anti-Akt (4691), anti-phospho ERK p42/p44 (4377), anti-ERK p42/p44 (9102), anti-phospho-MKK3/6 (12280), anti-MKK3 (8535), anti-phospho-TAK1 (4531), anti-TAK1 (5206), anti-HA (3274), and anti-FLAG (14793); all from Cell Signaling); and mouse anti-p38α (cat. no. 33-1300), anti-p38β (33-8700; both ThermoFisher) and anti-β-actin (Sigma A1978). Proteins were visualized with HRP-conjugated secondary antibodies (Bio-Rad) with WestPico (ThermoFisher) or Immobilon (Millipore) chemiluminescence reagents. Images were obtained and analyzed for relative densitometric relationships on a LI-COR C-DiGit scanner using Image Studio software."}, "JNK p54": {"system": "JNK p54", "experiment": "Western blotting of JNK in C2C12 cells", "procedure": "as §1"}, "[1]": {"system": "alkaline phosphatase (ALP)", "experiment": "ALP expression staining in C2C12 cells", "conditions": "C2C12, 2 days, 10 μM", "procedure": "C2C12 cells were treated for 2 days with 10 μM DIPQUO or structural analogs, 1 ng/ml rhBMP4, or with inhibitors as noted in figure legends, and then fixed briefly in 70% acetone/10% formaldehyde/20% citrate. Staining was achieved using the leukocyte alkaline phosphatase kit (Sigma 86R-1KT) according to the manufacturer's instructions. Expression of ALP was confirmed and quantified by flow cytometric analysis, using an Accuri C6 flow cytometer. Briefly, control- or DIPQUO-treated C2C12 cells were detached and harvested on day 2 using PBS-based enzyme-free cell detachment solution (ThermoFisher). 2×10^5 cells were incubated on ice for 30 minutes with 10 μl APC-conjugated ALPL antibody (R&D Systems), and washed in ice-cold PBS before analysis. Live cells were gated and analyzed in CFlow Plus software and then data was converted to FlowJo to achieve publication-level resolution. For siRNA experiments, gene-specific oligonucleotides were obtained for mouse p38-alpha (Cell Signaling) and p38-beta (Santa Cruz). Signal Silence scramble siRNA control oligonucleotide was purchased from Cell Signaling. C2C12 cells at 70% confluency were transfected in 12-well plates using Lipofectamine RNAiMax reagent (Invitrogen) according to manufacturer's instructions. Transfected cells were treated 24 hours later with DMSO or 10 μM DIPQUO, and siRNA transfection was repeated after 48 hours without changing culture media. After an additional 3 days, cells were either fixed and stained for ALP expression or analyzed for ALP activity using the AttoPhos Substrate kit. Hemagglutinin and FLAG epitope-tagged MKK3 (pMT2-HA-MKK3) and MKK6 (pcDNA3-FLAG-MKK6) constructs were obtained from Addgene and transfected into C2C12 cells using Lipofectamine LTX with Plus Reagent (ThermoFisher) according to manufacturer's instructions and cell extracts analyzed for protein expression and activity as described below."}, "[2]": {"system": "RAW 264.7 murine macrophage cell line", "experiment": "Osteoclast differentiation (TRAP staining, qRT-PCR) in RAW 264.7 cells", "conditions": "RAW 264.7, 4 days; DIPQUO 10 μM, RANKL 50 ng/ml", "procedure": "To address the specificity of DIPQUO for stimulating an osteogenic versus osteoclastic program, the RAW 264.7 murine macrophage cell line was assayed for osteoclast differentiation by staining for tartrate-resistant acid phosphatase (TRAP) to distinguish multinucleated osteoclasts from macrophages. […] Thus, DIPQUO appears to be primarily supportive of osteogenesis.\nThe RAW 264.7 macrophage cell line was purchased from ATCC and maintained in DMEM with 10% FBS. Cells were treated with 10 μM DIPQUO or 50 ng/ml RANKL (Sigma) for 4 days. Cells were fixed in 70% acetone/10% formaldehyde/20% citrate and TRAP staining was achieved using the Leukocyte Acid Phosphatase kit (Sigma 387A-1KT).\nFor quantitative RT-PCR analysis of gene expression in C2C12 cultures, cells were treated for 2 days with 10 μM DIPQUO and harvested into Trizol reagent (Invitrogen). One microgram of RNA was reverse transcribed using the VILO-RT kit (Invitrogen) to generate cDNA, which was diluted 1:25 in RNase-free H2O for qPCR with Sybr green using the Roche 480 II LightCycler and the 2^−ΔΔCT method (Livak and Schmittgen, 2001). For analysis of osteoclast gene expression, RAW 264.7 cells were treated with DMSO, 50 ng/ml RANKL, or 10 μM DIPQUO for 4 days, then harvested into Trizol reagent and processed as above. Mouse qPCR primers are as follows. Runx2: F([…]) (SEQ ID NO:1); R([…]) (SEQ ID NO:2); Dlx5: F([…]) (SEQ ID NO:3); R([…]) (SEQ ID NO:4); Osterix: F([…]) (SEQ ID NO:5); R([…]) (SEQ ID NO:6); ALP: F([…]) (SEQ ID NO:7); R([…]) (SEQ ID NO:8); Osteocalcin: F([…]) (SEQ ID NO:9); R([…]) (SEQ ID NO:10); Osteoactivin: F([…]) (SEQ ID NO:11); R([…]) (SEQ ID NO:12); CTSK: F([…]) (SEQ ID NO:13); R([…]) (SEQ ID NO:14); MMP9: F([…]) (SEQ ID NO:15); R([…]) (SEQ ID NO:16); Gapdh F([…]) (SEQ ID NO:17); R([…]) (SEQ ID NO:18). RNA-seq studies were carried out with the assistance of the Weill Cornell Genomics Core Facility, using the Illumina HiSeq4000 next-generation sequencer to generate reads from cDNA libraries generated from three biological replicates of day 2 DMSO- or DIPQUO-treated C2C12 cells. […]"}}, "data": [{"molecule": "N#CC(c1ccnc(NCCc2cccnc2)n1)c1nc2ccccc2s1", "note": "(stereo not shown) [JNK inhibitor V, reference compound]", "values": [{"measurement": "p38 MAPK signaling (phosphorylation)", "setting": "p38 MAPK", "value": "activate p38 MAPK"}, {"measurement": "JNK p54 signaling", "setting": "JNK p54", "value": "suppress JNK p54"}, {"measurement": "ALP expression by staining", "setting": "[1]", "value": "did not lead to ALP-positive staining"}]}, {"molecule": "B1", "values": [{"measurement": "TRAP staining of multinucleated osteoclasts", "setting": "[2]", "value": "found to promote both TRAP staining"}]}]}
